Test results: PubChem BioAssay AID1919009 (Molecular Pharmacology Branch, DTP, NCI, 2023)

Tested on: K24384-001-R-PDC complex spheroid growth
Assay: Anticancer human tumor K24384-001-R-PDC patient-derived pancreatic adenocarcinoma cell line growth inhibition [AhR]
Conditions: for IC50: curve of first compound; for viability, T/C: stronger effect = lower value
Summary of the method: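 Spheroids combined tumor cells with HUVEC endothelial cells and human MSCs as stroma. AhR antagonists were paired with standard or investigational drugs, each dosed in half-log steps down from near clinical Cmax, or from 10 microM where Cmax was unknown.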

[1] = second compound 0.1 µM, first compound 0.0316 µM
[2] = second compound 0.1 µM, first compound 0.1 µM
[3] = second compound 0.1 µM, first compound 0.316 µM
[4] = second compound 0.1 µM, first compound 1 µM
[5] = second compound 0.1 µM, first compound 3.16 µM
[6] = second compound 0.1 µM, first compound 10 µM
[7] = second compound 0.316 µM, first compound 0.0316 µM
[8] = second compound 0.316 µM, first compound 0.1 µM
[9] = second compound 0.316 µM, first compound 0.316 µM
[10] = second compound 0.316 µM, first compound 1 µM
[11] = second compound 0.316 µM, first compound 3.16 µM
[12] = second compound 0.316 µM, first compound 10 µM
[13] = second compound 1 µM, first compound 0.0316 µM
[14] = second compound 1 µM, first compound 0.1 µM
[15] = second compound 1 µM, first compound 0.316 µM
[16] = second compound 1 µM, first compound 1 µM
[17] = second compound 1 µM, first compound 3.16 µM
[18] = second compound 1 µM, first compound 10 µM
[19] = second compound 3.16 µM, first compound 0.0316 µM
[20] = second compound 3.16 µM, first compound 0.1 µM
[21] = second compound 3.16 µM, first compound 0.316 µM
[22] = second compound 3.16 µM, first compound 1 µM
[23] = second compound 3.16 µM, first compound 3.16 µM
[24] = second compound 3.16 µM, first compound 10 µM
[25] = second compound 10 µM, first compound 0.0316 µM
[26] = second compound 10 µM, first compound 0.1 µM
[27] = second compound 10 µM, first compound 0.316 µM
[28] = second compound 10 µM, first compound 1 µM
[29] = second compound 10 µM, first compound 3.16 µM
[30] = second compound 10 µM, first compound 10 µM
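For viability, T/C in this document: percent of DMSO vehicle-treated spheroid viability set as 100%.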

| IC50 (second compound 0.1 µM) | IC50 (second compound 0.316 µM) | IC50 (second compound 1 µM) | IC50 (second compound 3.16 µM) | IC50 (second compound 10 µM) | SMILES | viability, T/C [1] | viability, T/C [2] | viability, T/C [3] | viability, T/C [4] | viability, T/C [5] | viability, T/C [6] | viability, T/C [7] | viability, T/C [8] | viability, T/C [9] | viability, T/C [10] | viability, T/C [11] | viability, T/C [12] | viability, T/C [13] | viability, T/C [14] | viability, T/C [15] | further results |
| --- | --- | --- | --- | --- | --- | --- | --- | --- | --- | --- | --- | --- | --- | --- | --- | --- | --- | --- | --- | --- | --- |
| 1740 nM | 1100 nM | 1500 nM | 951 nM | < 31.6 nM | Nc1ccccc1NC(=O)c1ccc(CNC(=O)OCc2cccnc2)cc1 + Cc1cncc(-c2nc(NCCc3c[nH]c4ccccc34)c3ncn(C(C)C)c3n2)c1 | 90% | 86.7% | 79.6% | 69.3% | 30.3% | 6.17% | 111% | 108% | 77.7% | 48.3% | 31% | 3.5% | 111% | 99.8% | 87% | viability, T/C [16]: 56.6%; viability, T/C [17]: 33.6%; viability, T/C [18]: 2.82%; viability, T/C [19]: 77.6%; viability, T/C [20]: 93.2%; viability, T/C [21]: 61.9%; viability, T/C [22]: 43%; viability, T/C [23]: 33.1%; viability, T/C [24]: 1.51%; viability, T/C [25]: 15.2%; viability, T/C [26]: 10.7%; viability, T/C [27]: 7.68%; viability, T/C [28]: 5.34%; viability, T/C [29]: 4.19%; viability, T/C [30]: 0.39% |
| 1840 nM | 2110 nM | 2350 nM | 2320 nM | < 31.6 nM | O=C(C=Cc1cccc(S(=O)(=O)Nc2ccccc2)c1)NO + Cc1cncc(-c2nc(NCCc3c[nH]c4ccccc34)c3ncn(C(C)C)c3n2)c1 | 107% | 120% | 108% | 74.5% | 28.2% | 4.88% | 139% | 138% | 135% | 87.9% | 30.3% | 4.55% | 129% | 141% | 145% | viability, T/C [16]: 85.6%; viability, T/C [17]: 41.1%; viability, T/C [18]: 5.39%; viability, T/C [19]: 118%; viability, T/C [20]: 118%; viability, T/C [21]: 111%; viability, T/C [22]: 75.2%; viability, T/C [23]: 41.9%; viability, T/C [24]: 6.54%; viability, T/C [25]: 28.9%; viability, T/C [26]: 20.4%; viability, T/C [27]: 17.7%; viability, T/C [28]: 9.39%; viability, T/C [29]: 10.3%; viability, T/C [30]: 2.79% |
| > 10000 nM | > 10000 nM | > 10000 nM | > 10000 nM | < 31.6 nM | O=C(c1cc(Cc2n[nH]c(=O)c3ccccc23)ccc1F)N1CCN(C(=O)C2CC2)CC1 + Cc1cncc(-c2nc(NCCc3c[nH]c4ccccc34)c3ncn(C(C)C)c3n2)c1 | 128% | 135% | 140% | 96.3% | 78.5% | 82.5% | 155% | 157% | 143% | 117% | 106% | 90.5% | 137% | 132% | 142% | viability, T/C [16]: 98.5%; viability, T/C [17]: 128%; viability, T/C [18]: 114%; viability, T/C [19]: 106%; viability, T/C [20]: 119%; viability, T/C [21]: 135%; viability, T/C [22]: 119%; viability, T/C [23]: 119%; viability, T/C [24]: 111%; viability, T/C [25]: 17.7%; viability, T/C [26]: 14%; viability, T/C [27]: 13.2%; viability, T/C [28]: 13.9%; viability, T/C [29]: 10.4%; viability, T/C [30]: 8.74% |
